Values of other authors as cited in patent publication US20080107740A1, “Pharmaceutical composition comprising salmeterol and budesonide for the treatment of respiratory disorders” (GALEPHAR M/F, priority 2001, published 2008).

Key:
[1] = system: patients with reversible obstructive respiratory disease
[2] = inhaled, administered after or before inhaled corticosteroids

## OCc1cc(C(O)CNCCCCCCOCCCCc2ccccc2)ccc1O (stereo not shown) [Salmeterol]
[1]; after inhalation
  onset of significant bronchodilation: within minutes
  time to maximal bronchodilation: ≤ 2 h
[1]; inhalation, patients with reversible obstructive respiratory disease
  duration of bronchodilation: up to 12 hours
[2]
  tolerability: well tolerated
